For 14 compounds, IC50 results are on record in US8329904B2, “Azacyclic derivatives” (Hoffmann-La Roche Inc., priority 2009, dated 2012).

This assay has as its target T1, human HSL (Homo sapiens, UniProt Q05469).
T1 construct: overlapping PCR to generate a full length human HSL ORF with a 3′-His6 tag; His6 (C); made in house; host or cells: High 5 insect cells (baculovirus, pFast-BAC)
T1 sequence (Q05469 1-1076): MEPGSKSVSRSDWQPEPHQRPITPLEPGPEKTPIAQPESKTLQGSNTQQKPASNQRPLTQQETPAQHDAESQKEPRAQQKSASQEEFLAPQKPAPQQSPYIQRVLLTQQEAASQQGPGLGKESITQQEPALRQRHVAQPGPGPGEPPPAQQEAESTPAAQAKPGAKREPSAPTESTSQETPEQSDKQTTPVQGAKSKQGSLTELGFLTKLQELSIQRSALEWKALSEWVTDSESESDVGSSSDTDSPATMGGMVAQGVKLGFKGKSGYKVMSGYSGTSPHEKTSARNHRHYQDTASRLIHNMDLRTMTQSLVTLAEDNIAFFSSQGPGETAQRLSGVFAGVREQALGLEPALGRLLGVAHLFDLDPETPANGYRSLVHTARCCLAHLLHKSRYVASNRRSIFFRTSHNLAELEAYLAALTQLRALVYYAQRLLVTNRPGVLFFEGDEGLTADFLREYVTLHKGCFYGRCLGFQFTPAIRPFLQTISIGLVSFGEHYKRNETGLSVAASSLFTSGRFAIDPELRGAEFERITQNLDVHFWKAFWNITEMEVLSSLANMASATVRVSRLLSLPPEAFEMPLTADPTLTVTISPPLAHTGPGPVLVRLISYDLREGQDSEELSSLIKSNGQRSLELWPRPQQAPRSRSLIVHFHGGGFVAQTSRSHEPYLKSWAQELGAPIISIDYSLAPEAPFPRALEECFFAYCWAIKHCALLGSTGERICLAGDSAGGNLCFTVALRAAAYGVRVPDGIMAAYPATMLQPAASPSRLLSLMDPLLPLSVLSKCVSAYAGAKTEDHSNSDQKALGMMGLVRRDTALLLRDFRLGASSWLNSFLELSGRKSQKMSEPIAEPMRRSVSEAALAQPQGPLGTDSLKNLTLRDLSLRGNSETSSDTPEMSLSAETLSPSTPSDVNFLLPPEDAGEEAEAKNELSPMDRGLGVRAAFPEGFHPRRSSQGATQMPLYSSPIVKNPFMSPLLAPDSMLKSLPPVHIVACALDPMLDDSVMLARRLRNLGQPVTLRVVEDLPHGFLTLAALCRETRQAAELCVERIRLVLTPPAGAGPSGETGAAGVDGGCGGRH
The assay is described as follows: Human Hormone-Sensitive Lipase (HSL) Enzyme Inhibition Assay. It counts as biochemical. The following applies: colorimetric assay, 2,3-dimercapto-1-propanol tributyrate (DMPT) substrate, 37° C. for 20 minutes, absorbance at 405 nm; read-out: HSL hum IC50. The essentials: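 Colorimetric thioester hydrolysis: compounds in DMSO series mixed with DMPT (1.5 mM) in MOPS pH 7.2 with BSA, then baculovirus-expressed His6-tagged full-length human HSL added, 37° C, 20 min. DTNB plus detergents added, 15 min room temperature, absorbance at 405 nm.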
In the case of `CCn1cc2cc(N3CCC4(CCN(S(=O)(=O)c5ccccc5Cl)CC4)C3=O)ccc2n1` [Example 124, 8-(2-Chloro-benzenesulfonyl)-2-(2-ethyl-2H-indazol-5-yl)-2,8-diaza-spiro[4.5]decan-1-one], the IC50 was found to be 60 nM.
Turning to `CC(Oc1ccc(N2CCC3(CCN(S(=O)(=O)c4ccccc4Cl)CC3)C2=O)cc1)C(F)(F)F` (centres unmarked) [Example 125, 8-(2-Chloro-benzenesulfonyl)-2-[4-(2,2,2-trifluoro-1-methyl-ethoxy)-phenyl]-2,8-diaza-spiro[4.5]decan-1-one], the IC50 stood at 20 nM.
In the case of `CCn1ncc2cc(N3CCC4(CCN(S(=O)(=O)c5ccccc5Cl)CC4)C3=O)ccc21` [Example 126, 8-(2-Chloro-benzenesulfonyl)-2-(1-ethyl-1H-indazol-5-yl)-2,8-diaza-spiro[4.5]decan-1-one], the IC50 turned out to be 30 nM.
On to `Cc1nc2ccc(N3CCC4(CCN(S(=O)(=O)c5ccccc5Cl)CC4)C3=O)cc2s1` [Example 127, 8-(2-Chloro-benzenesulfonyl)-2-(2-methyl-benzothiazol-6-yl)-2,8-diaza-spiro[4.5]decan-1-one], for which the IC50 worked out at 60 nM.
With `O=C1N(c2ccc(OC3CCCC3)cc2)CCC12CCN(S(=O)(=O)c1ccccc1Cl)CC2` [Example 128, 8-(2-Chloro-benzenesulfonyl)-2-(4-cyclopentyloxy-phenyl)-2,8-diaza-spiro[4.5]decan-1-one], the IC50 came out at 20 nM.
As to `O=C1N(c2ccc(OC3CCOC3)cc2)CCC12CCN(S(=O)(=O)c1ccccc1Cl)CC2` (centres unmarked) [Example 129, 8-(2-Chloro-benzenesulfonyl)-2-[4-(tetrahydro-furan-3-yloxy)-phenyl]-2,8-diaza-spiro[4.5]decan-1-one], the IC50 was 40 nM.
Consider `Cn1ncc2cc(N3CCC4(CCN(S(=O)(=O)c5ccccc5Cl)CC4)C3=O)ccc21` [Example 130, 8-(2-Chloro-benzenesulfonyl)-2-(1-methyl-1H-indazol-5-yl)-2,8-diaza-spiro[4.5]decan-1-one], for which the IC50 came to 50 nM.
In the case of `Cn1cc2cc(N3CCC4(CCN(S(=O)(=O)c5ccccc5Cl)CC4)C3=O)ccc2n1` [Example 131, 8-(2-Chloro-benzenesulfonyl)-2-(2-methyl-2H-indazol-5-yl)-2,8-diaza-spiro[4.5]decan-1-one], the IC50 was determined as 570 nM.
As to `O=C1N(c2ccc(Oc3cccnc3)cc2)CCC12CCN(S(=O)(=O)c1ccccc1Cl)CC2` [Example 132, 8-(2-Chloro-benzenesulfonyl)-2-[4-(pyridin-3-yloxy)-phenyl]-2,8-diaza-spiro[4.5]decan-1-one], the IC50 amounted to 280 nM.
As to `O=C1N(c2ccc(OCC3CCCC3)cc2)CCC12CCN(S(=O)(=O)c1ccccc1Cl)CC2` [Example 133, 8-(2-Chloro-benzenesulfonyl)-2-(4-cyclopentylmethoxy-phenyl)-2,8-diaza-spiro[4.5]decan-1-one], the IC50 came to 600 nM.
Take `CCOC(=O)Cc1ccc(N2CCC3(CCN(S(=O)(=O)c4ccccc4Cl)CC3)C2=O)cc1` [Example 134, {4-[8-(2-Chloro-benzenesulfonyl)-1-oxo-2,8-diaza-spiro[4.5]dec-2-yl]-phenyl}-acetic acid ethyl ester]: the IC50 amounted to 50 nM.
For the compound `N#CCc1ccc(N2CCC3(CCN(S(=O)(=O)c4ccccc4Cl)CC3)C2=O)cc1` [Example 135, {4-[8-(2-Chloro-benzenesulfonyl)-1-oxo-2,8-diaza-spiro[4.5]dec-2-yl]-phenyl}-acetonitrile], the IC50 is 90 nM.
`Cc1nc(Cc2ccc(N3CCC4(CCN(S(=O)(=O)c5ccccc5Cl)CC4)C3=O)cc2)no1` [Example 136, 8-(2-Chloro-benzenesulfonyl)-2-[4-(5-methyl-[1,2,4]oxadiazol-3-ylmethyl)-phenyl]-2,8-diaza-spiro[4.5]decan-1-one]: the IC50 came to 80 nM.
`Cc1nnc(Cc2ccc(N3CCC4(CCN(S(=O)(=O)c5ccccc5Cl)CC4)C3=O)cc2)o1` [Example 137, 8-(2-Chloro-benzenesulfonyl)-2-[4-(5-methyl-[1,3,4]oxadiazol-2-ylmethyl)-phenyl]-2,8-diaza-spiro[4.5]decan-1-one]: the IC50 was found to be 220 nM.
